Source: PMC11053857, “Synthesis, In Vitro Biological Evaluation and Molecular Modeling of Benzimidazole-Based Pyrrole/Piperidine Hybrids Derivatives as Potential Anti-Alzheimer Agents” (Pharmaceuticals, 2024)
Read-outs that look alike come from different tables or passages of the source.

Key:
[1] = biological target: acetylcholinesterase (AChE) (Homo sapiens, UniProt P22303); assay: biochemical
Method: The enzyme inhibition activities for acetylcholinesterase and butyrylcholinesterase were determined using the method of Ellman et al. with slight modifications. The 62.0 mM sodium phosphate buffer (pH 8.0, 880 μL) used contained 0.002 M of DTNB (5,5′-dithiobis-2-nitrobenzoic acid). AChE and BuChE solutions (40 μL) were added with the test compounds (40 μL) and kept at 25 °C for 10–15 min. The acetylthiocholine or butyrylthiocholine (40 μL) were added just before the initiation of the catalytic reaction. […] The inhibition reactions were repeated in triplicate with a Shimadzu spectrophotometer (Kyoto, Japan).

[2] = biological target: butyrylcholinesterase (BuChE) (Homo sapiens, UniProt P06276); assay: biochemical; conditions: in vitro, 25 °C, pH 8.0, triplicate, standards listed separately for series 1–13 and 14–26
Method: The enzyme inhibition activities for acetylcholinesterase and butyrylcholinesterase were determined using the method of Ellman et al. with slight modifications. The 62.0 mM sodium phosphate buffer (pH 8.0, 880 μL) used contained 0.002 M of DTNB (5,5′-dithiobis-2-nitrobenzoic acid). AChE and BuChE solutions (40 μL) were added with the test compounds (40 μL) and kept at 25 °C for 10–15 min. The acetylthiocholine or butyrylthiocholine (40 μL) were added just before the initiation of the catalytic reaction. The enzymatic hydrolysis of the substrates encompassing the formation of yellow 5-thio-2-nitrobenzoate anion products was monitored at 412 nm (15 min). The inhibition reactions were repeated in triplicate with a Shimadzu spectrophotometer (Kyoto, Japan).

[3] = in vitro, 25 °C, pH 8.0, triplicate, standards listed separately for series 1–13 and 14–26, read-out: AChE Inhibition IC50 ± SEM
[4] = read-out: BuChE Inhibition IC50 ± SEM

acetylcholinesterase (AChE), sequence (P22303 32-614, species assumed): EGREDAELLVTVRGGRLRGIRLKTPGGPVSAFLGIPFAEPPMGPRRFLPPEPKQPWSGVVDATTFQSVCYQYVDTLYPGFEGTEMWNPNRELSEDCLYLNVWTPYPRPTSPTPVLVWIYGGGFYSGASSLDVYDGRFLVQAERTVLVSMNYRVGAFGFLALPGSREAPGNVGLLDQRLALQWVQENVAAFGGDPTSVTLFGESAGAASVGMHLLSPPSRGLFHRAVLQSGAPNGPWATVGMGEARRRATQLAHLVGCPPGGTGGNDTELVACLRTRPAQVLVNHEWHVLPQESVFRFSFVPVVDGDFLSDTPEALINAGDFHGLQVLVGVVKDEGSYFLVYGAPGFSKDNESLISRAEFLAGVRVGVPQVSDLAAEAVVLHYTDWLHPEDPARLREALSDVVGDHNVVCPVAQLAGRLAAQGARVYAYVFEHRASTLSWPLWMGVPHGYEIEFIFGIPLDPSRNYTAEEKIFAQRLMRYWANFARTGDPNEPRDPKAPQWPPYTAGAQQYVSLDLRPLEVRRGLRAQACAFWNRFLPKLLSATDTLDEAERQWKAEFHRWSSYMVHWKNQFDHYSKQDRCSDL
butyrylcholinesterase (BuChE), sequence (P06276 29-602): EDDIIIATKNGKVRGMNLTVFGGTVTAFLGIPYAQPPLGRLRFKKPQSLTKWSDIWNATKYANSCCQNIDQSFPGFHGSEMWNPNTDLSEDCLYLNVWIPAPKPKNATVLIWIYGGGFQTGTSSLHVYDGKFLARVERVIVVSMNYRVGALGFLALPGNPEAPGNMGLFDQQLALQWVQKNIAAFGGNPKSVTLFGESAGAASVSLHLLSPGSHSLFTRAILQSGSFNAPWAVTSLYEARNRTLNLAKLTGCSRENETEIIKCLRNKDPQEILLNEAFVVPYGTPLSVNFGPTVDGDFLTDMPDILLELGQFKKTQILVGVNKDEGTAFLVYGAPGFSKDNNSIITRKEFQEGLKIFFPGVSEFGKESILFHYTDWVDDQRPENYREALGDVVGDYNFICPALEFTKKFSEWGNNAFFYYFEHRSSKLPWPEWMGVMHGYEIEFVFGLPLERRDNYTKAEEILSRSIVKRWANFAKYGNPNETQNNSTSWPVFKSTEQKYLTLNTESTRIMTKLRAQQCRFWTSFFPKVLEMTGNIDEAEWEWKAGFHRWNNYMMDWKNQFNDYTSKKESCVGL

**Q.** Which results are given for `Cc1ccc(/C(CSc2nc3cc([N+](=O)[O-])ccc3[nH]2)=N\N=C\N2CCCCC2)cc1` [Compound 25, 5-nitro-2-(((E)-2-(((E)-piperidin-1-ylmethylene)hydrazono)-2-(p-tolyl)ethyl)thio)-1H-benzo[d]imidazole]?
**A.** IC50 [1, 3]: 35.01 ± 0.25 µM; IC50 [2, 4]: 32.25 ± 0.12 µM

**Q.** For `O=[N+]([O-])c1cccc(/C(CSc2nc3ccccc3[nH]2)=N\N=C\c2cc[nH]c2)c1` [Compound 6, 2-(((E)-2-(((E)-(1H-pyrrol-3-yl)methylene)hydrazono)-2-(3-nitrophenyl)ethyl)thio)-1H-benzo[d]imidazole], which IC50 [1, 3] is on record?
**A.** 28.12 ± 0.09 µM

**Q.** What about the IC50 [2, 4] of the same compound?
**A.** 32.14 ± 0.21 µM

**Q.** What does the source list for `COc1ccc2[nH]c(SC/C(=N/N=C/N3CCCCC3)c3cccc([N+](=O)[O-])c3)nc2c1` [Compound 17, 5-methoxy-2-(((E)-2-(3-nitrophenyl)-2-(((E)-piperidin-1-ylmethylene)hydrazono)ethyl)thio)-1H-benzo[d]imidazole]?
**A.** IC50 [1, 3]: 23.1 ± 0.41 µM; IC50 [2, 4]: 27.3 ± 0.5 µM

**Q.** What does the source list for `O=[N+]([O-])c1ccc2[nH]c(SC/C(=N/N=C/c3cc[nH]c3)c3ccc(-c4ccccc4)cc3)nc2c1` [Compound 11, 2-(((E)-2-(((E)-(1H-pyrrol-3-yl)methylene)hydrazono)-2-([1,1′-biphenyl]-4-yl)ethyl)thio)-5-nitro-1H-benzo[d]imidazole]?
**A.** IC50 [1, 3]: 32.13 ± 0.18 µM; IC50 [2, 4]: 37.76 ± 0.08 µM

**Q.** With `COc1ccc2[nH]c(SC/C(=N/N=C/N3CCCCC3)c3ccccc3OC)nc2c1` [Compound 15, 5-methoxy-2-(((E)-2-(2-methoxyphenyl)-2-(((E)-piperidin-1-ylmethylene)hydrazono)ethyl)thio)-1H-benzo[d]imidazole] as the compound, how does the IC50 [1, 3] read?
**A.** 26.03 ± 0.15 µM

**Q.** And the IC50 [2, 4]?
**A.** 29.11 ± 0.14 µM

**Q.** Which IC50 [1, 3] does the source give for `COc1ccc2[nH]c(SC/C(=N/N=C/c3cc[nH]c3)c3ccc(-c4ccccc4)cc3)nc2c1` [Compound 3, 2-(((E)-2-(((E)-(1H-pyrrol-3-yl)methylene)hydrazono)-2-([1,1′-biphenyl]-4-yl)ethyl)thio)-5-methoxy-1H-benzo[d]imidazole] here?
**A.** 30.11 ± 0.23 µM

**Q.** And the IC50 [2, 4]?
**A.** 34.06 ± 0.14 µM

**Q.** For `COc1ccccc1/C(CSc1nc2ccccc2[nH]1)=N\N=C\c1cc[nH]c1` [Compound 8, 2-(((E)-2-(((E)-(1H-pyrrol-3-yl)methylene)hydrazono)-2-(2-methoxyphenyl)ethyl)thio)-1H-benzo[d]imidazole], which IC50 [1, 3] is on record?
**A.** 21.03 ± 0.11 µM

**Q.** What about the IC50 [2, 4] of the same compound?
**A.** 25.1 ± 0.44 µM

**Q.** What does the source list for `COc1ccc(/C(CSc2nc3cc([N+](=O)[O-])ccc3[nH]2)=N\N=C\N2CCCCC2)cc1` [Compound 24, 2-(((E)-2-(4-methoxyphenyl)-2-(((E)-piperidin-1-ylmethylene)hydrazono)ethyl)thio)-5-nitro-1H-benzo[d]imidazole]?
**A.** IC50 [1, 3]: 32.05 ± 0.14 µM; IC50 [2, 4]: 39.66 ± 0.24 µM

**Q.** `O=[N+]([O-])c1cccc(/C(CSc2nc3ccccc3[nH]2)=N\N=C\N2CCCCC2)c1` [Compound 20, 2-(((E)-2-(3-nitrophenyl)-2-(((E)-piperidin-1-ylmethylene)hydrazono)ethyl)thio)-1H-benzo[d]imidazole] was tested. Which IC50 [1, 3] did it give?
**A.** 29.04 ± 0.22 µM

**Q.** What about the IC50 [2, 4] of the same compound?
**A.** 31.25 ± 0.03 µM

**Q.** `O=[N+]([O-])c1ccc2[nH]c(SC/C(=N/N=C/N3CCCCC3)c3ccc(-c4ccccc4)cc3)nc2c1` [Compound 23] was tested. Which IC50 [1, 3] did it give?
**A.** 38.2 ± 0.4 µM

**Q.** What about the IC50 [2, 4] of the same compound?
**A.** 42.27 ± 0.41 µM

**Q.** For `COc1ccc(/C(CSc2nc3cc(OC)ccc3[nH]2)=N\N=C\N2CCCCC2)cc1` [Compound 16, 5-methoxy-2-(((E)-2-(4-methoxyphenyl)-2-(((E)-piperidin-1ylmethylene) hydrazono)ethyl)thio)-1H-benzo[d]imidazole], which IC50 [1, 3] is on record?
**A.** 28.13 ± 0.23 µM

**Q.** What about the IC50 [2, 4] of the same compound?
**A.** 30.01 ± 0.23 µM

**Q.** What does the source list for `COc1ccc2[nH]c(SC/C(=N/N=C/c3cc[nH]c3)c3ccccc3OC)nc2c1` [Compound 4, 2-(((E)-2-(((E)-(1H-pyrrol-3-yl)methylene)hydrazono)-2-(2-methoxyphenyl)ethyl)thio)-5-methoxy-1H-benzo[d]imidazole]?
**A.** IC50 [1, 3]: 26.2 ± 0.41 µM; IC50 [2, 4]: 29.2 ± 0.8 µM

**Q.** How did the IC50 [1, 3] turn out when `COc1ccc2[nH]c(SC/C(=N/N=C/c3cc[nH]c3)c3ccc(C)cc3)nc2c1` [Compound 1, 2-(((E)-2-(((E)-(1H-pyrrol-3-yl)methylene)hydrazono)-2-(p-tolyl)ethyl)thio)-5-methoxy-1H-benzo[d]imidazole] was run?
**A.** 27.11 ± 0.02 µM

**Q.** What about the IC50 [2, 4] of the same compound?
**A.** 31.03 ± 0.11 µM

**Q.** What does the source list for `COc1ccc2[nH]c(SC/C(=N/N=C/N3CCCCC3)c3ccc(-c4ccccc4)cc3)nc2c1` [Compound 14, 2-(((E)-2-([1,1′-biphenyl]-4-yl)-2-(((E)-piperidin-1-ylmethylene)hydrazono)ethyl)thio)-5-methoxy-1H-benzo[d]imidazole]?
**A.** IC50 [1, 3]: 42.01 ± 0.02 µM; IC50 [2, 4]: 47.03 ± 0.15 µM

**Q.** How did the IC50 [1, 3] turn out when `COc1ccc(/C(CSc2nc3cc(OC)ccc3[nH]2)=N\N=C\c2cc[nH]c2)cc1` [Compound 2, 2-(((E)-2-(((E)-(1H-pyrrol-3-yl)methylene)hydrazono)-2-(4-methoxyphenyl)ethyl)thio)-5-methoxy-1H-benzo[d]imidazole] was run?
**A.** 20.04 ± 0.15 µM

**Q.** And the IC50 [2, 4]?
**A.** 23.22 ± 0.15 µM

**Q.** With `Cc1ccc(/C(CSc2nc3cc([N+](=O)[O-])ccc3[nH]2)=N\N=C\c2cc[nH]c2)cc1` [Compound 13, 2-(((E)-2-(((E)-(1H-pyrrol-3-yl)methylene)hydrazono)-2-(p-tolyl)ethyl)thio)-5-nitro-1H-benzo[d]imidazole] as the compound, how does the IC50 [1, 3] read?
**A.** 27.08 ± 0.25 µM

**Q.** And the IC50 [2, 4]?
**A.** 33.3 ± 0.42 µM

**Q.** What does the source list for `COc1ccc(/C(CSc2nc3cc([N+](=O)[O-])ccc3[nH]2)=N\N=C\c2cc[nH]c2)cc1` [Compound 12]?
**A.** IC50 [1, 3]: 23.1 ± 0.35 µM; IC50 [2, 4]: 27.35 ± 0.06 µM

**Q.** Which IC50 [1, 3] does the source give for `COc1ccccc1/C(CSc1nc2ccccc2[nH]1)=N\N=C\N1CCCCC1` [Compound 21, 2-(((E)-2-(2-methoxyphenyl)-2-(((E)-piperidin-1-ylmethylene)hydrazono)ethyl)thio)-1H-benzo[d]imidazole] here?
**A.** 30.1 ± 0.41 µM

**Q.** And the IC50 [2, 4]?
**A.** 38.02 ± 0.04 µM

**Q.** How did the IC50 [1, 3] turn out when `COc1ccc(/C(CSc2nc3ccccc3[nH]2)=N\N=C\c2cc[nH]c2)cc1` [Compound 9, 2-(((E)-2-(((E)-(1H-pyrrol-3-yl)methylene)hydrazono)-2-(4-methoxyphenyl)ethyl)thio)-1H-benzo[d]imidazole] was run?
**A.** 24.16 ± 0.21 µM

**Q.** What about the IC50 [2, 4] of the same compound?
**A.** 28.01 ± 0.13 µM

**Q.** Which results are given for `COc1ccc(/C(CSc2nc3ccccc3[nH]2)=N\N=C\N2CCCCC2)cc1` [Compound 22, 2-(((E)-2-(4-methoxyphenyl)-2-(((E)-piperidin-1-ylmethylene)hydrazono)ethyl)thio)-1H-benzo[d]imidazole]?
**A.** IC50 [1, 3]: 34.02 ± 0.11 µM; IC50 [2, 4]: 34.31 ± 0.12 µM

**Q.** For `C(=N\N=C(\CSc1nc2ccccc2[nH]1)c1ccc(-c2ccccc2)cc1)/c1cc[nH]c1` [Compound 5, 2-(((E)-2-(((E)-(1H-pyrrol-3-yl)methylene)hydrazono)-2-([1,1′-biphenyl]-4-yl)ethyl)thio)-1H-benzo[d]imidazole], which IC50 [1, 3] is on record?
**A.** 34.16 ± 0.03 µM

**Q.** What about the IC50 [2, 4] of the same compound?
**A.** 37.21 ± 0.23 µM

**Q.** How did the IC50 [1] turn out when `O=[N+]([O-])c1cccc(/C(CSc2nc3cc([N+](=O)[O-])ccc3[nH]2)=N\N=C\c2cc[nH]c2)c1` [Compound 10, 2-(((E)-2-(((E)-(1H-pyrrol-3-yl)methylene)hydrazono)-2-(3-nitrophenyl)ethyl)thio)-5-nitro-1H-benzo[d]imidazole] was run?
**A.** 19.4 ± 0.6 µM

**Q.** What about the IC50 ([2]; BuChE Inhibition IC50 ± SEM) of the same compound?
**A.** 21.6 ± 0.61 µM

**Q.** Which IC50 [1, 3] does the source give for `Cc1ccc(/C(CSc2nc3ccccc3[nH]2)=N\N=C\c2cc[nH]c2)cc1` [Compound 7, 2-(((E)-2-(((E)-(1H-pyrrol-3-yl)methylene)hydrazono)-2-(p-tolyl)ethyl)thio)-1H-benzo[d]imidazole] here?
**A.** 36 ± 0.41 µM

**Q.** What about the IC50 [2, 4] of the same compound?
**A.** 39.55 ± 0.03 µM

**Q.** How did the IC50 [1, 3] turn out when `Cc1ccc(/C(CSc2nc3ccccc3[nH]2)=N\N=C\N2CCCCC2)cc1` [Compound 19, 2-(((E)-2-(((E)-piperidin-1-ylmethylene)hydrazono)-2-(p-tolyl)ethyl)thio)-1H-benzo[d]imidazole] was run?
**A.** 33.19 ± 0.09 µM

**Q.** And the IC50 [2, 4]?
**A.** 36.22 ± 0.11 µM

**Q.** Which results are given for `COc1ccc2[nH]c(SC/C(=N/N=C/N3CCCCC3)c3ccc(C)cc3)nc2c1` [Compound 18, 5-methoxy-2-(((E)-2-(((E)-piperidin-1-ylmethylene)hydrazono)-2-(p-tolyl)ethyl)thio)-1H-benzo[d]imidazole]?
**A.** IC50 [1, 3]: 36.15 ± 0.03 µM; IC50 [2, 4]: 39.11 ± 0.13 µM
